{
  "source": "patent US20250257364A1",
  "about": "“RNA-GUIDED DNA TRANSPOSITION” (priority 2024, published 2025)",
  "key": {"[1]": {"system": "E. coli murA CRISPRtOE strains vs lacZ controls", "assay": "CRISPRtOE pooled library competitive growth assay with fosfomycin", "type": "cell-based, E. coli K-12", "conditions": "fosfomycin 0.4 μg/ml, ~10-15 doublings", "procedure": "(§1) CRISPRtOE library growth experiments. Competition experiment growth. The E. coli CRISPRtOE murA and folA libraries were mixed in equal volume with the LP-lacZ library: 50 μl frozen stock (OD600=10) of each library (murA+LP-lacZ and folA+LP-lacZ) into 100 ml LB (starting OD600=0.01) in a 500 ml flask and incubated shaking at 37° C. until OD600=0.2 (˜2.5 h) (timepoint=T0) to revive the cells. […] (T1). These cultures were serially diluted back to OD600=0.01 into fresh tubes containing the same media and incubated again with shaking for 18 h at 37° C. (T2) for a total of ˜10-15 doublings. Cells were pelleted from 15 ml of culture in duplicate at each time point T0 and 1 ml of culture at timepoints T1 and T2 and stored at −20° C.\n(§2) To test for overexpression phenotypes, the folA or murA library was mixed 50:50 with the lacZ control library and cells were grown in the presence/absence of TMP or FOS, respectively."}, "[2]": {"system": "E. coli folA CRISPRtOE strains vs lacZ controls", "procedure": "as §1, §2"}, "[3]": {"system": "E. coli folA CRISPRtOE isolates vs parent strains", "conditions": "TMP 0.04-20 μg/ml, MHB, 20 h", "procedure": "MIC assays. The minimal inhibitory concentration (MIC) of E. coli folA and murA CRISPRtOE isolates was determined by either growth in a microtiter plate or by disc diffusion assays, respectively. For the broth microdilution assay, CRISPRtOE isolates and WT controls were grown to saturation from an isolated colony and serially diluted to OD600=0.003) and the CRISPRtOE library was diluted from a glycerol stock to the same density. […] E. coli folA CRISPRtOE isolates, the folA CRISPRtOE library, a lacZ CRISPRtOE control, and WT cultures and the media containing antibiotic were mixed in equal proportions and incubated 20 h shaking at 37° C. prior to cell density (OD600) determination in a microplate reader. For the MIC strip assays, E. coli folA or murA CRISPRtOE isolates, a lacZ CRISPRtOE control, and WT cultures were diluted to OD600=0.3 and 300 μl was spread on a 100 mm MH agar plate and dried in a laminar flow cabinet. When dry, MIC strips (Liofilchem, Italy; 920371 (TMP 0.002-32 mg/L) and 920791(FOS 0.064-1024 mg/L)) were applied to the plate and 10 μl serially diluted antibiotics were applied to the discs. Plates were incubated at 37° C. for 18 h. Broth microdilution assays were repeated 3 times and MIC test strip assays twice."}, "[4]": {"system": "E. coli whole genome CRISPRtOE library (promoter H)", "procedure": "Whole genome experiment growth. The E. coli CRISPRtOE whole genome libraries with no promoter (sJMP10704) or promoter H (sJMP10705) were revived by dilution of 100 μl frozen stock (OD600=15) into 100 ml LB (starting OD600=0.015) and incubation in 500 ml flasks shaking at 37° C. until OD600=0.2 (˜2.5 h) (timepoint=TO). […] (T1). These cultures were serially diluted back to OD600=0.01 into fresh tubes containing the same media and incubated again with shaking for 18 h at 37° C. (T2) for a total of ˜10-15 doublings. Cells were pelleted from 15 ml of culture in duplicate at time point TO and 1 ml of culture at timepoints T1 and T2 and stored at −20° C.\nA custom Python script (counting_spacers.py) was used to determine the number of times each spacer appeared in the filtered alignment file. […] Pairwise comparison of spacer counts in DMSO and TMP treatment samples was performed using edgeR^70 and a custom Rscript (comparison_of_spacer_counts_edgeR.R). The results were plotted using a custom Rscripts (plotting_scatter_plot.R, barplot_with_points.R, scatter_plot_commands.R). […]\nTo test the ability of CRISPRtOE to identify antibiotic-relevant gene phenotypes at the genome-scale, the libraries were grown in the presence or absence of a sub-lethal concentration of TMP and relative strain abundance was measured."}, "[5]": {"system": "lacZ", "assay": "CRISPRt disruption of lacZ, blue-white screening of transconjugants", "type": "cell-based, E. coli K-12", "conditions": "lacZ targeted", "description": "Transfer of the CRISPRt/CRISPRtOE system to the bacterial chromosome. CRISPRt and CRISPRtOE strains were constructed by triparental mating of two E. coli donor strains-one with the pCRISPRt-H plasmid encoding Cas678-TniQ-TnsABC and another with the pCRISPRt-T or pCtOE plasmid containing the transposon with the guide RNA and antibiotic resistance- and a recipient strain (Table 1). All conjugations and selection post-conjugation were carried out at 30° C. regardless of the normal incubation temperature for the organism. Isolated donor and recipient strains were struck out on plates with the appropriate media and antibiotic (if relevant) concentrations. Colonies were resuspended from plates into the growth medium used for the recipient to a density of OD600=9. […]\nFor lacZ targeted CRISPRt, the color of 80 individual colonies was determined by patching on LB agar plates containing X-gal (20 μg/ml). […]\nTo test the precision of CRISPRt, both endogenous (lacZ) and heterologous (gfp) reporter genes were targeted for disruption in E. coli K-12 (data not shown). […] Next, targeting on the genome scale was determined by sequencing genomic DNA at the Tn6677 transposon junction (Tn-seq) using Illumina®-based Next Generation Sequencing (NGS). […]"}, "[6]": {"system": "E. coli genome", "assay": "Tn-seq of CRISPRt transposon insertion sites (specificity, orientation)", "type": "cell-based, E. coli K-12", "conditions": "insertions ~49 bp downstream of protospacer", "text": "FIGS. 1a-e illustrate a mobilizable, selectable, dual-plasmid system for CRISPR-guided transposition. 1a. Schematic of a targeted transposition gene knockout (CRISPRt) and gene overexpression (CRISPRtOE) system optimized for functional genomics. 1b. Schematic of mechanism of Vibrio cholera Type I-F CRISPR-associated transposon (Vc CAST) system. 1c. Schematic of strain construction using the CRISPRt targeted transposition system. Plasmids have pir-dependent origins of replication preventing replication in the bacterial recipient. […] Inside the recipient cell, the transposon (flanked in yellow) is inserted onto the chromosome at a site determined by the sequence of the guide RNA. […] Specificity of CRISPRt disruption of gfp and lacZ in E. coli measured by Tnseq. Mapping of location of transposon insertion sites to the E. coli genome after CRISPRt targeted transposition with gfp1 guide (226,671 reads) or LZ1 guide (216,801 reads). […]\nTnseq analysis of CRISPRt/CRISPRtOE constructs. […] PCR products were spin-purified (eluted in 15 μl) and quantified fluorometrically. […] Briefly, PCR products were amplified with nested primers containing i5 and i7 indexes and Illumina® TruSeq™ adapters followed by bead cleanup, quantification, pooling and running on a NovaSeq X Plus (150 bp paired end reads) or MiSeq (250 bp paired end reads). […]"}},
  "data": [
    {"compound": "C[C@@H]1O[C@@H]1P(=O)(O)O", "note": "[FOS, fosfomycin]", "values": [
      {"measurement": "increase in abundance of murA OE strains relative to lacZ controls", "setting": "[1]", "value": 52, "unit": "fold"}
    ]},
    {"compound": "COc1cc(Cc2cnc(N)nc2N)cc(OC)c1OC", "note": "[TMP, trimethoprim]", "values": [
      {"measurement": "increase in abundance of folA OE strains relative to lacZ controls", "setting": "[2]", "value": 22, "unit": "fold"},
      {"measurement": "shift in MIC between parent strains and folA CRISPRtOE isolates", "setting": "[3]", "value": "15 to 30", "unit": "fold"},
      {"measurement": "enrichment of folA-associated spacers", "setting": "[4]", "value": "> 1000", "unit": "fold"}
    ]},
    {"compound": "lacZ: gRNA spacer LZ1 (Petassi, PMID: 33271061), SEQ ID NO: 16, targeting lacZ (guide CAACTTAATCGCCTTGCAGCACATCCCCCTTT; chemistry not given here)", "values": [
      {"measurement": "transconjugants showing the expected disruption phenotype", "setting": "[5]", "value": 100, "unit": "%"},
      {"measurement": "insertions in R-L orientation", "setting": "[6]", "value": 74.1, "unit": "%"}
    ]}
  ]
}
